2 compounds from patent publication US20170360013A1, “ANIMAL MODEL FOR DRY EYE AND METHODS OF USE OF SUCH ANIMALS” (REGENERON PHARMACEUTICALS, INC., priority 2014, published 2017) can be followed below.

Assay [1] relates to C57BL/6 mice. In words: Flow cytometry of extraorbital lacrimal glands (CD45+ immune cell infiltration). The settings on record: after 4 weeks of treatment; relative to controls. Type of assay: in vivo, mouse. The method, then: (§1) Dry eye model induction: 27 adult, male C57BL/6 mice were randomized to naïve (untreated), sham (receiving surgery equivalent to surgery for implantation of pump, but without actual implantation of pump and without scopolamine or BAC treatment), benzalkonium chloride (BAC), scopolamine (Scop) or BAC plus Scop groups.
(§2) Implantation of scopolamine pump. For Scop group, mice were subcutaneously implanted with an osmotic pump filled with Scop (2 mg/20 g body weight/day) lasting for 4 weeks. Mice were anesthetized with ketamine (120 mg/kg, IP) and xylazine (5 mg/kg, IP). Using aseptic microsurgical technique and an operating microscope, a mini-osmotic pump was placed beneath the back skin, then the skin was sutured, and erythromycin ophthalmic ointment was applied to the wound to prevent infection.
(§3) Benzalkonium chloride treatment. For BAC treatment, 1 μl of 0.1-0.2% BAC was topically administrated on the right eye ocular surface, twice daily, 2 days per week, for four weeks.
Quantification of corneal angiogenesis, lymphangiogenesis and lacrimal gland infiltration. On day 28 after induction of dry eye, under deep ketamine (120 mg/kg, IP) and xylazine (5 mg/kg, IP) anesthesia, eyeballs were collected in 4% paraformaldehyde (PFA) for corneal angiogenesis and lymphangiogenesis studies. […]
Flow cytometry. […] Data was analyzed by FlowJo (Tree Star, Ashland, Oreg.).
A general note: In flow cytometry, cells or beads pass a laser one at a time.

In assay [2] the test system is C57BL/6 mice. As to the kind of experiment: Tear production measurement (phenol red thread) in dry eye model induction. The class given is in vivo, mouse. Conditions: over four weeks of administration; Scop 2 mg/20 g body weight/day by s.c. osmotic pump; BAC 1 μl of 0.1-0.2% topical, twice daily, 2 days per week; relative to controls or BAC alone; p<0.001. The method, then:
as §1, §2, §3
Tear production measurement and corneal fluorescein staining score. Tear production and corneal fluorescein staining were performed once per week, on day 7, 14, 21, and 28. […] Five minutes after application, corneal fluorescein staining was scored under a microscope using the National Eye Institute (NEI) scoring standards.

In the case of `CN1[C@@H]2C[C@@H](OC(=O)[C@H](CO)c3ccccc3)C[C@H]1[C@@H]1O[C@@H]12` [Scop, scopolamine], the “percent of CD45+ cells in extraorbital lacrimal glands” value in assay [1] is recorded as “increased”. Further, the tear production result in assay [2] is “significantly decreases”.
benzalkonium chloride [BAC]: the “percent of CD45+ cells in extraorbital lacrimal glands” value in assay [1] is on record as “increased”.
